Data: patent publication US6352993B1, “Pyrimidine derivatives and processes for the preparation thereof” (Yuhan Corporation, priority 1997, dated 2002)
Structures can show the parent of a compound that is named as a salt.

Key:
[1] = target: proton pump (H+/K+-ATPase) (UniProt P19156); experiment: Inhibition of proton pump (H+/K+-ATPase activity); format: biochemical; set-up: other: K+-stimulated proton pump activity, pH 6.0, 37°; details: K+-stimulated proton pump activity, pH 6.0, 37° C., 30 minutes preincubation; read-out: IC50 (concentration inhibiting 50% of the proton pump activity)
Protocol: (§1) Test 1: Inhibition of proton pump (H^+/K^+-ATPase activity)
(§2) A proton pump enzyme was prepared by the same method as in the Experiment 1-1 of WO 94/14795. Further, the inhibitory effect of proton pump activity was measured by the same method as in Experiment 1-2 of WO 94/14795.
(§3) Namely, the proton pump activity stimulated by Mg^++ was used as a negative comparative group, and the activity stimulated by Mg^++ and K^+ was used as a positive comparative group. The comparative compound was omeprazole.
(§4) Test tubes were divided into 4 groups: Group 1 as negative comparative group(n=3), Group 2 as positive comparative group(n=3), Group 3(n=5×2) to be administered with the compound of the present invention and Group 4(n=5×2) to be administered with the comparative compound.
(§5) The inhibitory effects of Groups 3 and 4 on proton pump activity were measured by employing the compound prepared in Examples and omeprazole, respectively, each of which was dissolved in dimethylsulfoxide at 5 different concentrations.
(§6) To each of Groups 1, 2, 3 and 4 were added 100 μl of magnesium chloride(40 mM) dissolved in 40 mM Tris-HCI buffer(ph 6.0) and 100 μg of the enzyme source. The 50 μl of potassium chloride(50 mM) and 50 μl of ammonium chloride(6 mM) dissolved in 40 mM Tris-HCl buffer(pH 6.0) were added to all groups except for group 1.
(§7) 10 μl of dimethylsulfoxide was added to each of Groups 1 and 2; and to Group 3 was added 10 μl of dimethylsulfoxide solution prepared by dissolving compound of EXAMPLE at 5 different concentration(n=5×2). To Group 4, 10 μl of the solution prepared by dissolving omeprazole in dimethylsulfoxide at 5 different concentration(37.6, 21.4, 12.2, 7.0 and 4.0 μM) was added(n=5×2). 40 mM Tris-HCI buffer(pH=6.0) was added thereto so as to make the total volume 400 μl.
(§8) Thereafter, the test tube of each Group were placed at 37° C. for 30 minutes for the preincubation. 100 μl ATP solution (6.6 mM) was added until the reaction volume became 500 μl. After the reaction was carried out at 37° C. for 30 minutes, 25% cold trichloroacetic acid was added to terminate the enzyme reaction. The released inorganic phosphate was measured by an automatic analyzer(Express 550, coming).
(§9) The difference between Group 1 and Group 2 represents the proton pump activity activated by K^+ only. The IC50s of Group 3 and 4 were calculated from Litchfield-wilcoxon equation[see, e.g., J. Pharrnacol. Exp. Ther., 96, 99(1949)]. The concentrations of the test compounds inhibiting 50% of the proton pump activity are represented as IC50 in Table 1.

[2] = tested on: gastric secretion in pylorus-ligated Sprague-Dawly rats; experiment: Inhibition of gastric secretion (pylorus-ligated rats, Shay method); format: in vivo; details: 20 mg/kg intraduodenally, 5 hours; for Relative conc.: gastric juice acidity relative to omeprazole, equation (II); for Relative volume: gastric juice amount relative to omeprazole, equation (I); for Relative Acid Output: total acid output relative to omeprazole, equation (III)
Protocol: Test 2: Inhibition of gastric secretion
In accordance with the method disclosed in Shay, H., et al., Gastroenterology 5 43-61(1945), Test 2 was carried out.
Sprague-Dawly rats having a body weight of 170±10 g were divided into 3 groups(n=5) and deprived of food for 24 hours before the experiment with free access to water. Under ether anesthesia, the abdomen was incised, and the pylorus was ligated. As a comparative group, Group 1 was administered intraduodenally in a volume of 0.5 ml/200 g of 30% aqueous polyethylene glycol 400 solution. Groups 2 and 3 were administered intraduodenally with the compound of Example and omeprazole, respectively, each of which was suspended in 30% aqueous polyethylene glycol 400 solution at a concentration of 20 mg/kg. After closing the abdominal cavity, the rats were placed for 5 hours and then killed by cervical dislocation. The stomach was extracted to obtain gastric juice.
Tne gastric juice was centrifuged at 1,000 g to remove precipitates. The amount and acidity of the gastric juice were measured. Relative volumes, relative acid concentrations and relative acid outputs of the test compounds were calculated from equations(I), (II) and (III) and the results are shown in Table 2.
Relative volume=(the average amount of gastric juice of Group 1—the average amount of gastric juice of Group 2)/(the average amount of gastric juice of Group 1−the average amount of gastric juice of Group 3)—(I)
Relative acid concerntration=(the average acidity of Group 1—the average acidity of Group 2)/(the average acidity of Group 1—the average acidity of Group 3)—(II)
Relative acid output (the total amount of acid output of Group 1—the total amount of acid output of Group 2)/(the total amount of acid output of Group 1—the total amount of acid output of Group 3)—(m)

[3] = target: proton pump (H+/K+-ATPase) (UniProt P19156); experiment: Inhibition of proton pump (H+/K+-ATPase activity); format: biochemical; set-up: Effect ratio; details: relative to omeprazole IC50
Protocol: as §1, §2, §3, §4, §5, §6, §7, §8, §9

With `C=CCNc1nc(C)c(C)c(N2CCc3ccccc3C2)n1` [Example 2, 5,6-dimethyl-2-(3-allylamino)-4-(1,2,3,4-tetrahydroisoquinolin-2-yl)pyrimidine hydrochloride] the IC50 [1] was 7.85 µM, the Relative conc. [2] was 0.57 and the Relative volume [2] was 0.69. The “Relative Acid Output” value [2] was 0.70 and the Effect ratio [3] was 1.4.

`COCCNc1nc(C)c(C)c(N2CCc3ccccc3C2)n1.Cl` [Example 5, 5,6-dimethyl-2-(2-methoxyethylamino)-4-(1,2,3,4-tetrahydroisoquinolin-2-yl)pyrimidine hydrochloride] was tested, and the IC50 [1] was 6.91 µM, the Relative conc. [2] was 0.18 and the Relative volume [2] was 0.45. The “Relative Acid Output” value [2] was 0.43 and the Effect ratio [3] was 1.6.

`Cc1nc(NCC(C)C)nc(N2CCc3ccccc3C2C)c1C` (stereo not shown) [Example 14, 5,6-dimethyl-2-isobutylamino-4-(1-methyl-1,2,3,4-tetrahydroisoquinolin-2-yl)pyrimidine] gave an IC50 [1] of 2.15 µM, a Relative conc. [2] of 0.41 and a Relative volume [2] of 0.93. For the same molecule, the “Relative Acid Output” value [2] was 0.79 and the Effect ratio [3] was 5.2.

Work on `Cc1csc(Nc2nc(C)c(C)c(N3CCc4ccccc4C3C)n2)n1.Cl` (stereo not shown) [Example 22, 5,6-dimethyl-2-(4-methylthiazol-2-yl)amino-4-(1-methyl-1,2,3,4-tetrahydroisoquinolin-2-yl)pyrimidine hydrochloride] yielded an IC50 [1] of 6.69 µM, a Relative conc. [2] of 0.46 and a Relative volume [2] of 0.59. For the same molecule, the “Relative Acid Output” value [2] was 0.62 and the Effect ratio [3] was 1.7.

For `Cc1csc(Nc2nc(C)c(C)c(N3CCc4ccccc4C3)n2)n1.Cl` [Example 23, 5,6-dimethyl-2-(4-methylthiazol-2-yl)amino-4-(1,2,3,4-tetrahydroisoquinolin-2-yl)pyrimidine hydrochloride], the IC50 [1] was 0.43 µM, the Relative conc. [2] was 1.34 and the Relative volume [2] was 1.58. For the same molecule, the “Relative Acid Output” value [2] was 1.23 and the Effect ratio [3] was 25.8.

`Cc1nc(Nc2ccc(F)cc2)nc(N2CCc3c(O)ccc(O)c3C2C)c1C.Cl` (stereo not shown) [Example 43, 5,6-dimethyl-2-(4-fluorophenylamino)-4-(5,8-dihydroxy-1-methyl-1,2,3,4-tetrahydroisoquinolin-2-yl)pyrimidine hydrochloride] gave an IC50 [1] of 0.18 µM and an Effect ratio [3] of 61.7.

With `CC(=O)OCc1nc(Nc2ccc(F)cc2)nc(N2CCc3ccccc3C2C)c1C` (stereo not shown) [Example 50, 5-methyl-6-acetoxymethyl-2-(4-fluorophenylamino)-4-(1-methyl-1,2,3,4-tetrahydroisoquinolin-2-yl)pyrimidine] the Relative conc. [2] was 0.77, the Relative volume [2] was 1.01 and the “Relative Acid Output” value [2] was 0.98.

`CCC(=O)OCc1nc(Nc2ccc(F)cc2)nc(N2CCc3ccccc3C2C)c1C` (stereo not shown) [Example 51, 5-methyl-6-ethylcarbonyloxymethyl-2-(4-fluorophenylamino)-4-(1-methyl-1,2,3,4-tetrahydroisoquinolin-2-yl)pyrimidine] was tested, and the Relative conc. [2] was 1.02, the Relative volume [2] was 1.09 and the “Relative Acid Output” value [2] was 1.06.

`Cc1c(COC(=O)C(C)C)nc(Nc2ccc(F)cc2)nc1N1CCc2ccccc2C1C` (stereo not shown) [Example 52, 5-methyl-6-isopropylcarbonyloxymethyl-2-(4-fluorophenylamino)-4-(1-methyl-1,2,3,4-tetrahydroisoquinolin-2-yl)pyrimidine] was tested, and the Relative conc. [2] was 0.88, the Relative volume [2] was 0.86 and the “Relative Acid Output” value [2] was 0.96.

`Cc1c(COC(=O)C2CC2)nc(Nc2ccc(F)cc2)nc1N1CCc2ccccc2C1C` (stereo not shown) [Example 54, 5-methyl-6-cyclopropylcarbonyloxymethyl-2-(4-fluorophenylamino)-4-(1-methyl-1,2,3,4-tetrahydroisoquinolin-2-yl)pyrimidine] was tested, and the Relative conc. [2] was 0.79, the Relative volume [2] was 0.79 and the “Relative Acid Output” value [2] was 0.95.

For `Cc1nc(Nc2ccc(F)cc2)nc(N2CCc3cc(OC(=O)c4ccc([N+](=O)[O-])cc4)ccc3C2C)c1C` (stereo not shown) [Example 107, 5,6-diinethyl-2-(4-fluorophenylamino)-4-{1-methyl-6-(4-nitrobenzoyloxy)-1,2,3,4-tetrahydroisoquinolin-2-yl}pyrimidine], the Relative conc. [2] was 0.56, the Relative volume [2] was 0.62 and the “Relative Acid Output” value [2] was 0.73.

With `Cc1c(COC(=O)CNC(=O)OC(C)(C)C)nc(Nc2ccc(F)cc2)nc1N1CCc2ccccc2C1C` (stereo not shown) [Example 139, 5-methyl-6-(N-t-butoxycarbonyl-glycyloxymetyl)-2-(4-fluorophenylamino)-4-(1-methyl-1,2,3,4-tetrahydroisoquinolin-2-yl)pyrimidine] the Relative conc. [2] was 0.75, the Relative volume [2] was 1.01 and the “Relative Acid Output” value [2] was 1.01.

With `Cc1c(COC(=O)C(Cc2cn(Cc3ccccc3)cn2)NC(=O)OC(C)(C)C)nc(Nc2ccc(F)cc2)nc1N1CCc2ccccc2C1C` (stereo not shown) [Example 144, 5-methyl-6-(N-t-butoxycarbonyl-Im-benzyl-histidyloxymethyl)-2-(4-fluorophenylamino)-4-(1-methyl-1,2,3,4-tetrahydroisoquinolin-2-yl)pyrimidine] the Relative conc. [2] was 0.80, the Relative volume [2] was 0.90 and the “Relative Acid Output” value [2] was 0.94.

In the case of `Cc1c(COC(=O)[C@@H](N)C(C)C)nc(Nc2ccc(F)cc2)nc1N1CCc2ccccc2C1C.Cl.Cl` (stereo partly shown) [Example 171, 5-methyl-6-valyloxymethyl-2-(4-fluorophenylamino)-4-(1-methyl-1,2,3,4-tetrahydroisoquinolin-2-yl)pyrimidine dibydrochloride], the Relative conc. [2] is reported as 1.42, the Relative volume [2] is reported as 1.46 and the “Relative Acid Output” value [2] is reported as 1.33.

With `Cc1c(COC(=O)[C@@H](N)Cc2ccccc2)nc(Nc2ccc(F)cc2)nc1N1CCc2ccccc2C1C.Cl.Cl` (stereo partly shown) [Example 172, 5-methyl-6-(phenylalanyloxymethyl)-2-(4-fluorophenylamino)-4-(1-methyl-1,2,3,4-tetrahydroisoquinolin-2-yl)pyrimidine dihydrochloride] the Relative conc. [2] was 1.33, the Relative volume [2] was 1.48 and the “Relative Acid Output” value [2] was 1.34.

For `Cc1c(COC(=O)CN2CCOCC2)nc(Nc2ccc(F)cc2)nc1N1CCc2ccccc2C1C.Cl.Cl` (stereo not shown) [Example 175, 5-methyl-6-(4-morpholineacetoxymethyl)-2-(4-fluorophenylamino)-4-(t1-methyl-1,2,3,4tetrahydroisoquinolin-2-yl)pyrimidine dihydrochloride], the Relative conc. [2] was 0.30, the Relative volume [2] was 0.87 and the “Relative Acid Output” value [2] was 0.79.

With `Cc1c(COC(=O)CN2CCCCC2)nc(Nc2ccc(F)cc2)nc1N1CCc2ccccc2C1C.Cl.Cl` (stereo not shown) [Example 181, 5-rethyl-6-(1-piperidineacetoxymethyl)-2-(4-fluorophenylamino)-4-(1-methyl-1,2,3,4-tetrahydroisoquinolin-2-yl)pyrimidine dihydrochloride] the Relative conc. [2] was 0.16, the Relative volume [2] was 0.99 and the “Relative Acid Output” value [2] was 0.80.

`COc1ccc2[nH]c([S+]([O-])Cc3ncc(C)c(OC)c3C)nc2c1` (stereo not shown) [Omeprazole, omeprazole, reference compound] showed an IC50 [1] of 11.1 µM.
